Laboratory results published in article PMC12100716 (2025).

Key:
Assay in all cases: PELDOR (EPR) distance distributions
[1] = system: C12C47 (RNA, aptamer, Çm (rigid nitroxide spin-label cytidine analogue) at 12 and 47) GGACGACUGAACCGAAAGGUUCUUGGCUGCUUCGGCAGAGGUACGUCC; settings: 130 mM glutamate buffer, pH 7.5; frozen solution; qualitative
[2] = system: C30C47 (RNA, aptamer, Çm (rigid nitroxide spin-label cytidine analogue) at 30 and 47) GGACGACUGAACCGAAAGGUUCUUGGCUGCUUCGGCAGAGGUACGUCC; settings: 130 mM glutamate buffer, pH 7.5; frozen solution; qualitative; small fraction of free aptamer remains
[3] = system: C12C30 (RNA, aptamer, Çm (rigid nitroxide spin-label cytidine analogue) at 12 and 30) GGACGACUGAACCGAAAGGUUCUUGGCUGCUUCGGCAGAGGUACGUCC; settings: 130 mM glutamate buffer, pH 7.5; frozen solution; qualitative

binding [1]: yes
binding [2]: yes
binding [3]: yes
Compound: CN(C)c1ccc2c(-c3ccc(C(=O)O)cc3C(=O)[O-])c3ccc(=[N+](C)C)cc-3oc2c1
